In US20260209250A1, “CRYSTAL FORM OF KRAS G12D INHIBITOR AND PREPARATION METHOD THEREFOR” (priority 2022, published 2026):

Legend:
[1] = tested on: ERK phosphorylation in AGS cells; experiment: Inhibition of ERK phosphorylation in AGS cells (HTRF method); assay type: cell-based; conditions: Homo sapiens, 1 h incubation, phosphorylated ERK/total ERK ratio
Protocol: In the experiment, the inhibitory effect of the compound on the KRAS target was evaluated by assessing the inhibitory effect of compound 1-p1 on ERK phosphorylation in cells and based on the IC50 value.
AGS cells (Nanjing Cobioer, CBP60476) were cultured in an RPMI1640 (Hyclone, SH30809.01) complete culture medium containing 10% fetal bovine serum. On the first day of the experiment, the AGS cells were seeded into a 96-well plate with a complete culture medium at a density of 40000 cells/well, with each well containing 190 μL of a cell suspension. The plate was incubated overnight in a 5% CO2 cell incubator at 37° C.
The next day, the test compound, serially diluted in a complete culture medium, was added at 10 μL/well. The final concentrations of the compound were 9 concentration points obtained by 5-fold serial dilution from 10 μM. A blank control containing 0.5% DMSO was set. The plate was incubated in a 5% CO2 cell incubator at 37° C. for 1 h. […]
On the third day, the fluorescence values at an excitation wavelength of 337 nm and emission wavelengths of 665 nm and 620 nm were obtained using an ENVISION multi-mode microplate reader (PerkinElmer, ENVISION).
The IC50 value for the inhibitory activity of the compound was calculated using Graphpad Prism software based on the compound concentration and the phosphorylated ERK/total ERK ratio.

AGS cells = experiment: Inhibition of 3D proliferation of AGS cells; assay type: cell-based; conditions: Homo sapiens, 120 h, CellTiter-Glo 3D
Protocol: (§1) The inhibitory effect of compound 1-p1 on the KRAS target was evaluated by assessing the inhibitory effect of compound 1-p1 on the 3D proliferation of GP2d and AGS cells.
(§2) AGS cells (Nanjing Cobioer, CBP60476) were cultured in a complete culture medium, namely an RPMI1640 culture medium (Hyclone, SH30809.01) containing 10% fetal bovine serum (Corning, 35-076-CV). On the first day of the experiment, the AGS cells were seeded into a 96-well low-adsorption plate (Corning, CLS7007-24EA) with a complete culture medium at a density of 1000 cells/well, with each well containing 90 μL of a cell suspension. The plate was centrifuged at 2000 rpm for 5 min at room temperature and then incubated overnight in a 5% CO2 cell incubator at 37° C.
(§3) The next day, the test compound, serially diluted in a complete culture medium, was added at 10 μL/well. The final concentrations of the compound for GP2d cells were 9 concentration points obtained by 3-fold serial dilution from 1 μM, and the final concentrations of the compound for AGS cells were 9 concentration points obtained by 3-fold serial dilution from 10 μM. A blank control containing 0.5% DMSO was set for both types of cells. […] The luminescence signal values were obtained using a multi-mode microplate reader (PerkinElmer, ENVISION).
(§4) The IC50 values for the inhibitory activity of the compound were calculated using Graphpad Prism software.

GP2d cells = experiment: Inhibition of 3D proliferation of GP2d cells; assay type: cell-based; conditions: 120 h, CellTiter-Glo 3D
Protocol: as §1
as §2, with “GP2d” for “AGS”, “CBP60010)” for “CBP60476)”, “a DMEM/high glucose” for “an RPMI1640”, “SH30243.01)” for “SH30809.01)”
as §3, §4

[2] = Long-term/accelerated stability; assay type: physicochemical
[3] = Crystal form stability study (influencing factor experiments); assay type: physicochemical
Protocol: Samples of the crystal forms A, B, C, I, J, and K of the compound represented by formula (I) were taken, spread in open containers, and left to stand under conditions of light exposure (4500 Lux), high temperatures (40° C. and 60° C.), and high humidities (RH 75% and RH 92.5%) for 30 days to investigate their stability, and the results are shown in Table 16.

[4] = 40° C., 10 days, open container
[5] = 40° C., 30 days, open container
[6] = 60° C., 10 days, open container
[7] = 60° C., 30 days, open container
[8] = 75% RH, 10 days, open container
[9] = 75% RH, 30 days, open container
[10] = 92.5% RH, 5 days, open container
[11] = 92.5% RH, 10 days, open container
[12] = 92.5% RH, 30 days, open container
[13] = light exposure (4500 Lux), 5 days, open container
[14] = light exposure (4500 Lux), 10 days, open container
[15] = light exposure (4500 Lux), 30 days, open container

For `CCc1c(F)ccc2cc(O)cc(-c3nc4c5c(nc(OC[C@@]67CCCN6C[C@H](F)C7)nc5c3F)N3C[C@H]5CC[C@H](N5)[C@H]3CO4)c12` [Compound 1-p1, 5-Ethyl-6-fluoro-4-((5aS,6S,9R)-1-fluoro-12-(((2R,7aS)-2-fluorotetrahydro-1H-pyrrolizin-7a(5H)-yl)methoxy)-5a,6,7,8,9,10-hexahydro-5H-4-oxa-3,10a,11,13,14-pentaaza-6,9-methanonaphtho[1,8-ab]heptalen-2-yl)naphthalen-2-ol], the IC50 [1] was 0.4 nM, the IC50 (AGS cells) was 5.8 nM and the IC50 (GP2d cells) was 0.9 nM.

For `CCc1c(F)ccc2cc(O)cc(-c3nc4c5c(nc(OC[C@@]67CCCN6C[C@H](F)C7)nc5c3F)N3C[C@H]5CC[C@H](N5)[C@H]3CO4)c12` [Crystal form K, 5-Ethyl-6-fluoro-4-((5aS,6S,9R)-1-fluoro-12-(((2R,7aS)-2-fluorotetrahydro-1H-pyrrolizin-7a(5H)-yl)methoxy)-5a,6,7,8,9,10-hexahydro-5H-4-oxa-3,10a,11,13,14-pentaaza-6,9-methanonaphtho[1,8-ab]heptalen-2-yl)naphthalen-2-ol], the “Purity % 1 month” value ([2]; 25° C./60% RH) was 99.7%, the “Purity % 2 months” value ([2]; 25° C./60% RH) was 99.8% and the “Purity % 6 months” value ([2]; 25° C./60% RH) was 99.7%. The “Purity % Initial” value ([2]; 25° C./60% RH) was 99.8%, the “Purity % 1 month” value ([2]; 40° C./75% RH) was 99.7% and the “Purity % 2 months” value ([2]; 40° C./75% RH) was 99.7%. For the same molecule, the “Purity % 6 months” value ([2]; 40° C./75% RH) was 99.4%, the “Purity % Initial” value ([2]; 40° C./75% RH) was 99.8% and the Color and state ([3]; 40° C., 5 days, open container) was “Off-white solid”. For the same molecule, the Crystal form ([3]; 40° C., 5 days, open container) was “Did not change”, the Purity % ([3]; 40° C., 5 days, open container) was 99.2% and the Color and state [3, 4] was “Off-white solid”. The Crystal form [3, 4] was “Did not change”, the Purity % [3, 4] was 98.5% and the Color and state [3, 5] was “Off-white solid”. The Crystal form [3, 5] was “Did not change”, the Purity % [3, 5] was 97.0% and the Color and state ([3]; 60° C., 5 days, open container) was “Off-white solid”. The Crystal form ([3]; 60° C., 5 days, open container) was “Did not change”, the Purity % ([3]; 60° C., 5 days, open container) was 99.1% and the Color and state [3, 6] was “Off-white solid”. For the same molecule, the Crystal form [3, 6] was “Did not change”, the Purity % [3, 6] was 98.5% and the Color and state [3, 7] was “Off-white solid”. The Crystal form [3, 7] was “Did not change”, the Purity % [3, 7] was 97.0% and the Color and state ([3]; 75% RH, 5 days, open container) was “Off-white solid”. For the same molecule, the Crystal form ([3]; 75% RH, 5 days, open container) was “Did not change”, the Purity % ([3]; 75% RH, 5 days, open container) was 99.8% and the Color and state [3, 8] was “Off-white solid”. For the same molecule, the Crystal form [3, 8] was “Did not change”, the Purity % [3, 8] was 99.7% and the Color and state [3, 9] was “Off-white solid”. For the same molecule, the Crystal form [3, 9] was “Did not change”, the Purity % [3, 9] was 99.7% and the Color and state [3, 10] was “Off-white solid”. For the same molecule, the Crystal form [3, 10] was “Did not change”, the Purity % [3, 10] was 99.8% and the Color and state [3, 11] was “Off-white solid”. The Crystal form [3, 11] was “Did not change”, the Purity % [3, 11] was 99.7% and the Color and state [3, 12] was “Off-white solid”. The Crystal form [3, 12] was “Did not change”, the Purity % [3, 12] was 99.7% and the Color and state ([3]; Initial, 0 days) was “Off-white solid”. The Crystal form ([3]; Initial, 0 days) was “Crystal form K”, the Purity % ([3]; Initial, 0 days) was 99.8% and the “Physical and chemical properties (conclusion of influencing factor experiments)” value ([3]; high temperatures and high humidities for 30 days) was “good physical and chemical properties”. The Color and state [3, 13] was “Off-white solid”, the Crystal form [3, 13] was “Did not change” and the Purity % [3, 13] was 99.3%. For the same molecule, the Color and state [3, 14] was “Off-white solid”, the Crystal form [3, 14] was “Did not change” and the Purity % [3, 14] was 98.9%. The Color and state [3, 15] was “Off-white solid”, the Crystal form [3, 15] was “Did not change” and the Purity % [3, 15] was 97.9%.
